Data taken from patent US20100105766A1, “COMPOSITION FOR INHIBITION OR PREVENTION OF BONE DENSITY REDUCTION” (Kirin Beer Kabushiki Kaisha, priority 2003, published 2010).
Entries after “also recorded” stand apart in the source; their conditions may differ.

Assays:
[1] = tested on: ovariectomized female SD rats; assay: Amelioration of bone mineral density reduction after removal of ovaries (pQCT, femur), test 4; format: in vivo, rat; settings: oral 10 ml/kg once a day for 28 days, concentrations equal to those in beer (isoxanthohumol also 5-fold and 20-fold)
Experimental: Ovaries on both sides of 9-week old female SD rats were removed, and, from the next day of the ovary removal, the test compound was orally administered into the stomach through a stomach tube (liquid amount 10 ml/kg) once a day for 28 days.
For the control group and sham operation group, the 0.8% aqueous ethanol solution was orally administered in the same manner as in the test compound administration group. 17β-Estradiol was provided as a positive control and was subcutaneously administered at a dose of 4 μg/kg/day.
Beer (domestically produced pilsner beer) contained 2.1 mg/L isoxanthohumol and 43 μg/L 8-prenylnaringenin. Here this beer was once lyophilized and was then dissolved in water to remove ethanol to give a test compound which was then used in the test.
Isoxanthohumol was dissolved in a 0.8% aqueous ethanol solution so that, as compared with the concentration of isoxanthohumol contained in beer, the resultant solutions had 1-fold, 5-fold and 20-fold isoxanthohumol concentrations. […]
The bone mineral density was measured by dissecting the femur of rats and identifying the cancellous bone mineral density at the distal metaphysis bone end with a pQCT (Peripheral Quantitative computed tomography) bone mineral density measuring apparatus (XCT-960A, manufactured by Norland Stratec).

[2] = tested on: estrogen-responsive human breast cancer-derived MCF-7 cells; assay: Estrogen activity measured by cell growth of MCF-7 cells (Cell Counting Kit); format: cell-based; settings: for estrogen activity compared with the activity of estradiol: MCF-7 cell growth, relative to 17β-estradiol; for estrogen activity (cell growth of MCF-7 cells as index): 7 days of culture, absorbance at 450 nm
Experimental: The estrogen activity of the test compound was measured using as an index cell growth of estrogen-responsive human breast cancer-derived MCF-7 cells. The cell line used is one that expressed an estrogen receptor and enhanced cell growth in the presence of an estrogen-like substance. Therefore, the estrogen activity was measured by measuring the cell growth of the cell line with Cell Counting Kit (manufactured by DOJINDO LABORATORIES).
The measurement of cell growth of MCF-7 cells with the Cell Counting Kit was carried out by measuring the absorbance at 450 nm of formazane produced from a WST-1 reagent ([…], monosodium salt) incorporated in cells with a microplate reader (SOFTmax (manufactured by Molecular Devices Corporation)).
More specifically, MCF-7 cells were precultured for 3 days in a DMEM medium containing 10% of fetal calf serum (manufactured by Gibco), which had been treated using Dextran-Coated Charcoal (manufactured by Sigma) for adsorbing and removing endogenous steroids, and further containing penicillin and streptomycin (each 10000 units, 1 mg/ml, manufactured by Gibco), 0.1 mM nonessential amino acid (manufactured by Gibco), 1 mM sodium pyruvate (manufactured by Gibco), and 1 μg/ml insulin (human recombinant 27.5 USP unit/mg: (manufactured by Sigma)). A cell suspension having an MCF-7 cell concentration of 8×10^4 cells/ml was prepared and was seeded on a 96 well plate in an amount of 100 μl/well. One day after the initiation of the culture, the medium in the wells was replaced by a medium containing a test compound (0.1% (v/v)) dissolved in dimethylsulfoxide, and culture was continued. On the fourth day of the culture, the medium in the wells was again replaced by a fresh medium containing the test compound. On the seventh day of the culture, the cell growth was measured with Cell Counting Kit.
For purified isoxanthohumol and chemically synthesized 8-prenylnaringenin, the estrogen activity was measured in the same manner as in test 1, except that the concentrations of the test compound in the medium for MCF-7 cell culture were set as follows.
Isoxanthohumol was added so that the concentration of isoxanthohumol in the medium was 1.0×10^−5, 1.0×10^−6, 1.0×10^−7, 1.0×10^−8, 1.0×10^−9, and 1.0×10^−10 mol/L.

[3] = tested on: ovariectomized female SD rats; assay: In vivo estrogen activity in ovariectomized rats (uterine weight), test 3-b; set-up: species or system rat
Experimental: Ovaries on both sides of 9-week old female SD rats (available from Charles River Japan, Inc.) were removed, and the rats were randomly grouped so that each group consisted of 6 animals. The animals were reared with free feeding of water and AlN-76A (manufactured by CLEA JAPAN INC.). From the next day of the operation, the test compound was forcibly orally administered into the stomach through a stomach tube (liquid amount 10 ml/kg) once a day for 28 days.
Isoxanthohumol was dissolved in a 0.8% aqueous ethanol solution so that, as compared with the concentration of isoxanthohumol contained in beer, the resultant solutions had 1-fold, 5-fold and 20-fold isoxanthohumol concentrations. For the control group and sham operation group, the 0.8% aqueous ethanol solution was orally administered in the same manner as in the test compound administration group. 17β-Estradiol was provided as a positive control and was subcutaneously administered at a dose of 2 μg/kg/day.

[4] = tested on: young Wistar female rats; assay: In vivo estrogen activity in immature rats (uterine weight), test 3-a; set-up: species or system rat; settings: oral 1, 5 or 25 mg/kg/day once a day for 3 days
Experimental: In vivo estrogen activity was evaluated using young Wistar female rats. The rats used were provided as follows. At the outset, 20-day old Wistar female rats (available from Charles River Japan, Inc.) were selected so that the difference in body weight among the animals was within ±10% of the average body weight. Thereafter, the animals were randomly grouped so that each group consisted of 6 animals. The animals were reared with free feeding of water and AlN-76A (manufactured by CLEA JAPAN INC.).
After preliminary rearing for one day, isoxanthohumol or 8-prenylnaringenin was forcibly orally administered into the stomach through a stomach tube at a dose of 1, 5, or 25 mg/kg/day (liquid amount 10 ml/kg) once a day for 3 days. For the control group, a solvent (peanut oil) was orally administered in the same manner as described, and for the positive control, 17β-estradiol was provided and was orally administered at a dose of 400 μg/kg/day in the same manner as described above. About 24 hr after the final administration, the uterine was harvested from the rats, and the weight of the uterine was measured to measure the in vivo estrogen activity.

[5] = tested on: bone resorption; settings: in vitro experiment, reported in the literature; cited from earlier work

Row | Compound | amelioration of cancellous bone mineral density reduction in the femur [1] | estrogen activity compared with the activity of estradiol [2] | estrogen activity (cell growth of MCF-7 cells as index) [2] | dose without uterine weight increasing activity relative to the dose that exhibited bone mineral density reduction inhibitory activity [3] | in vivo estrogen activity (recovery of uterine weight) ([3]; oral 10 ml/kg once a day for 28 days, 1-fold, 5-fold and 20-fold the concentration in beer) | in vivo estrogen activity (uterine weight increasing activity) [4] | bone resorption inhibitory effect [5]
1 | CC(C)=CCc1c(O)cc(O)c2c1O[C@H](c1ccc(O)cc1)CC2=O [8-prenylnaringenin, reference compound] | This amelioration was not observed | 10^−2 time | had estrogen activity |  |  |  | 
2 | COc1cc(O)c(CC=C(C)C)c2c1C(=O)CC(c1ccc(O)cc1)O2 (stereo not drawn) [isoxanthohumol] | confirmed to be effective; also recorded: better than the effect of xanthohumol; also recorded: significantly ameliorated; also recorded: significantly improved a bone mineral density reduction | about 10^−5 time | had estrogen activity; also recorded: has estrogen activity | 20 times | significant recovery of the weight of the uterine was not observed; also recorded: did not exhibit uterine weight increasing activity | did not have in vivo estrogen activity for immature rats or had only a very low level of activity; also recorded: did not exhibit uterine weight increasing activity; also recorded: uterine hypertrophy action was not observed | 
3 | COc1cc(O)c(CC=C(C)C)c(O)c1C(=O)/C=C/c1ccc(O)cc1 [xanthohumol, reference compound] | any activity as in isoxanthohumol was not observed |  |  |  |  |  | proven to have bone resorption inhibitory effect
4 | Humulons |  |  |  |  |  |  | proven to have bone resorption inhibitory effect
